# Measurements reported in US20150125889A1, “IN VITRO DETECTION OF MICROORGANISMS WITH AZOREDUCTASE ACTIVITY” (BIOMÉRIEUX, priority 2012, published 2015).
# Columns and labels:
# Test in all cases: Reduction of azo substrates over 24 hours at 35° C., microtitration plate (Example 1)
# Format in all cases: cell-based
# [1] = test system: Candida albicans; design: key to RED (substrate reduced or not): RED indicates whether the substrate is reduced (Y) or not (N); RED indicates whether the substrate is reduced (Y) or not (N); key to Co (growth, absorbance at 660 nm) / Decol (substrate decolourized, decrease in absorbance) / Fluo (fluorescence multiplied by 2 relative to substrate-free control): The symbol “+” means good growth/decolourization/significant increase in fluorescence; The symbol “+/−” means difficult growth; The symbol “−” means that there is no growth/decolourization/significant increase in fluorescence; details: substrate 35 mg/l
# In short: (§1)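 Strains were incubated 24 h at 35° C. in Trypcase soya broth with azo substrate (35 mg/l), starting from a 0.5 McFarland inoculum. Growth was monitored at 660 nm, while decolourization and fluorescence increase were scored at wavelengths specific to each substrate.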
# [2] = test system: Staphylococcus epidermidis; design: key to RED (substrate reduced or not): RED indicates whether the substrate is reduced (Y) or not (N); RED indicates whether the substrate is reduced (Y) or not (N); key to Co (growth, absorbance at 660 nm) / Decol (substrate decolourized, decrease in absorbance) / Fluo (fluorescence multiplied by 2 relative to substrate-free control): The symbol “+” means good growth/decolourization/significant increase in fluorescence; The symbol “+/−” means difficult growth; The symbol “−” means that there is no growth/decolourization/significant increase in fluorescence; details: S. epidermidis, substrate 35 mg/l
# In short: as §1
# [3] = test system: Kocuria rosea; design: key to RED (substrate reduced or not): RED indicates whether the substrate is reduced (Y) or not (N); RED indicates whether the substrate is reduced (Y) or not (N); key to Co (growth, absorbance at 660 nm) / Decol (substrate decolourized, decrease in absorbance) / Fluo (fluorescence multiplied by 2 relative to substrate-free control): The symbol “+” means good growth/decolourization/significant increase in fluorescence; The symbol “+/−” means difficult growth; The symbol “−” means that there is no growth/decolourization/significant increase in fluorescence; details: K. rosea, substrate 35 mg/l
# In short: as §1
# [4] = test system: Geotrichum candidum; design: key to RED (substrate reduced or not): RED indicates whether the substrate is reduced (Y) or not (N); RED indicates whether the substrate is reduced (Y) or not (N); key to Co (growth, absorbance at 660 nm) / Decol (substrate decolourized, decrease in absorbance) / Fluo (fluorescence multiplied by 2 relative to substrate-free control): The symbol “+” means good growth/decolourization/significant increase in fluorescence; The symbol “+/−” means difficult growth; The symbol “−” means that there is no growth/decolourization/significant increase in fluorescence; details: G. candidum, substrate 35 mg/l
# In short: as §1
# [5] = test system: Cronobacter muytjensii; design: key to RED (substrate reduced or not): RED indicates whether the substrate is reduced (Y) or not (N); RED indicates whether the substrate is reduced (Y) or not (N); key to Co (growth, absorbance at 660 nm) / Decol (substrate decolourized, decrease in absorbance) / Fluo (fluorescence multiplied by 2 relative to substrate-free control): The symbol “+” means good growth/decolourization/significant increase in fluorescence; The symbol “+/−” means difficult growth; The symbol “−” means that there is no growth/decolourization/significant increase in fluorescence; details: E. muytjensii, substrate 35 mg/l
# In short: as §1
# [6] = test system: Pseudomonas aeruginosa; design: key to RED (substrate reduced or not): RED indicates whether the substrate is reduced (Y) or not (N); RED indicates whether the substrate is reduced (Y) or not (N); key to Co (growth, absorbance at 660 nm) / Decol (substrate decolourized, decrease in absorbance) / Fluo (fluorescence multiplied by 2 relative to substrate-free control): The symbol “+” means good growth/decolourization/significant increase in fluorescence; The symbol “+/−” means difficult growth; The symbol “−” means that there is no growth/decolourization/significant increase in fluorescence; details: P. aeruginosa, substrate 35 mg/l
# In short: as §1
# [7] = test system: Staphylococcus aureus; design: key to RED (substrate reduced or not): RED indicates whether the substrate is reduced (Y) or not (N); RED indicates whether the substrate is reduced (Y) or not (N); key to Co (growth, absorbance at 660 nm) / Decol (substrate decolourized, decrease in absorbance) / Fluo (fluorescence multiplied by 2 relative to substrate-free control): The symbol “+” means good growth/decolourization/significant increase in fluorescence; The symbol “+/−” means difficult growth; The symbol “−” means that there is no growth/decolourization/significant increase in fluorescence; details: S. aureus, substrate 35 mg/l
# In short: as §1
# [8] = test system: Escherichia coli; design: key to RED (substrate reduced or not): RED indicates whether the substrate is reduced (Y) or not (N); RED indicates whether the substrate is reduced (Y) or not (N); key to Co (growth, absorbance at 660 nm) / Decol (substrate decolourized, decrease in absorbance) / Fluo (fluorescence multiplied by 2 relative to substrate-free control): The symbol “+” means good growth/decolourization/significant increase in fluorescence; The symbol “+/−” means difficult growth; The symbol “−” means that there is no growth/decolourization/significant increase in fluorescence; details: E. coli, substrate 35 mg/l
# In short: as §1
# [9] = test system: Acinetobacter baumanii; design: key to RED (substrate reduced or not): RED indicates whether the substrate is reduced (Y) or not (N); RED indicates whether the substrate is reduced (Y) or not (N); key to Decol (substrate decolourized, decrease in absorbance) / Fluo (fluorescence multiplied by 2 relative to substrate-free control) / Co (growth, absorbance at 660 nm): The symbol “+” means good growth/decolourization/significant increase in fluorescence; The symbol “+/−” means difficult growth; The symbol “−” means that there is no growth/decolourization/significant increase in fluorescence; details: A. baumannii, substrate 35 mg/l
# In short: as §1
# [10] = test system: Enterococcus faecalis; design: key to RED (substrate reduced or not): RED indicates whether the substrate is reduced (Y) or not (N); RED indicates whether the substrate is reduced (Y) or not (N); key to Decol (substrate decolourized, decrease in absorbance) / Fluo (fluorescence multiplied by 2 relative to substrate-free control) / Co (growth, absorbance at 660 nm): The symbol “+” means good growth/decolourization/significant increase in fluorescence; The symbol “+/−” means difficult growth; The symbol “−” means that there is no growth/decolourization/significant increase in fluorescence; details: E. faecalis, substrate 35 mg/l
# In short: as §1
structure (smiles),measurement,setting,value
O=S(=O)([O-])c1ccc2c(N=Nc3ccccc3)c(O)c(S(=O)(=O)[O-])cc2c1.[Na+].[Na+] [Ponceau 2G],"Co (growth, absorbance at 660 nm)",[1],+
same,"Decol (substrate decolourized, decrease in absorbance)",[1],−
same,Fluo (fluorescence multiplied by 2 relative to substrate-free control),[1],−
same,RED (substrate reduced or not),[1],N
same,"Co (growth, absorbance at 660 nm)",[2],+
same,"Decol (substrate decolourized, decrease in absorbance)",[2],−
same,Fluo (fluorescence multiplied by 2 relative to substrate-free control),[2],−
same,RED (substrate reduced or not),[2],N
same,"Co (growth, absorbance at 660 nm)",[3],−
same,"Decol (substrate decolourized, decrease in absorbance)",[3],−
same,Fluo (fluorescence multiplied by 2 relative to substrate-free control),[3],−
same,"Co (growth, absorbance at 660 nm)",[4],+/−
same,"Decol (substrate decolourized, decrease in absorbance)",[4],−
same,Fluo (fluorescence multiplied by 2 relative to substrate-free control),[4],−
same,RED (substrate reduced or not),[4],N
same,"Co (growth, absorbance at 660 nm)",[5],+
same,"Decol (substrate decolourized, decrease in absorbance)",[5],−
same,Fluo (fluorescence multiplied by 2 relative to substrate-free control),[5],−
same,RED (substrate reduced or not),[5],N
same,"Co (growth, absorbance at 660 nm)",[6],+
same,"Decol (substrate decolourized, decrease in absorbance)",[6],−
same,Fluo (fluorescence multiplied by 2 relative to substrate-free control),[6],−
same,RED (substrate reduced or not),[6],N
same,"Co (growth, absorbance at 660 nm)",[7],+
same,"Decol (substrate decolourized, decrease in absorbance)",[7],−
same,Fluo (fluorescence multiplied by 2 relative to substrate-free control),[7],−
same,RED (substrate reduced or not),[7],N
same,"Co (growth, absorbance at 660 nm)",[8],+
same,"Decol (substrate decolourized, decrease in absorbance)",[8],−
same,Fluo (fluorescence multiplied by 2 relative to substrate-free control),[8],−
same,RED (substrate reduced or not),[8],N
same,"Co (growth, absorbance at 660 nm)",[9],+
same,"Decol (substrate decolourized, decrease in absorbance)",[9],−
same,Fluo (fluorescence multiplied by 2 relative to substrate-free control),[9],−
same,RED (substrate reduced or not),[9],N
same,"Co (growth, absorbance at 660 nm)",[10],+
same,"Decol (substrate decolourized, decrease in absorbance)",[10],+
same,Fluo (fluorescence multiplied by 2 relative to substrate-free control),[10],−
same,RED (substrate reduced or not),[10],Y
